Results reported in patent publication US6706663B2, “Herbicidal 3-heterocyclic substituted benzisothiazole and benzisoxazole compounds” (Wyeth, priority 2000, dated 2004).

How the values were obtained:
[1] = tested on: ABUTH (Abutilon theophrasti); experiment: Postemergence herbicidal evaluation; assay type: in vivo, Medic.; conditions: postemergence
Method in brief: (§1)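 Seedlings grown about two weeks in flats, sprayed, then kept under standard greenhouse care. Rated visually 4–5 weeks after treatment on a 0–9 scale (stand, vigour, malformation, size, chlorosis, overall appearance) relative to untreated control; repeat tests averaged.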

ZEAMX (Corn, Field) = experiment: Preemergence herbicidal evaluation; assay type: in vivo, Zea mays, L.; conditions: rated 4-5 weeks after treatment
ORYSAT (Rice, Tebonnet) = experiment: Flooded paddy, post-transplant rice tolerance; assay type: in vivo, Oryza sativa, (L.) Tebonnet; conditions: flooded paddy, post-transplant rice, rated 3-4 weeks after treatment, 0-9 rating scale
Method in brief: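 Scores (0-9) reflect visual injury relative to untreated plants in flooded silt loam. Each pot held two transplanted ten-day-old seedlings under 1.5 to 3 cm standing water in the greenhouse.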

[2] = tested on: MOOVA (Monochoria vaginalis); experiment: Flooded paddy, preemergence weed control; assay type: in vivo, Presl.; conditions: rated 3-4 weeks after treatment, 0-9 rating scale
Method in brief: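 Plants were established from seed or propagating organs in flooded silt loam, with the water surface held 1.5 to 3 cm above the soil for the entire experiment. Injury was assessed visually against a control and given a 0-9 score.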

[3] = tested on: ECHCG (Echinochloa crus-galli); experiment: Preemergence herbicidal evaluation; assay type: in vivo, (L.) Beau; conditions: rated 4-5 weeks after treatment
Method in brief: (§2)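 Scores (0–9) reflect visual comparison with control plants for stand, vigor, malformation, size and chlorosis. Seeds in potting soil received a post-planting spray of compound in aqueous acetone and grew in a greenhouse until assessment 4–5 weeks later.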

SETVI (Setaria viridis) [4] = experiment: Preemergence herbicidal evaluation; assay type: in vivo, (L.) Beau; conditions: rated 4-5 weeks after treatment
Method in brief: as §2

[5] = tested on: TRZAWR (Wheat, Winter, cv Riband); experiment: Postemergence herbicidal evaluation; assay type: in vivo, Triticum aestivum; conditions: postemergence
Method in brief: as §1

SETVI (Setaria viridis) [6] = experiment: Postemergence herbicidal evaluation; assay type: in vivo, (L.) Beau; conditions: postemergence
Method in brief: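 Visual injury score (0-9: stand, vigor, malformation, size, chlorosis, overall appearance vs untreated control) taken four to five weeks post-spray. Two-week-old seedlings received about 0.0040 to 1.000 kg/ha active compound in acetone/water with 0.5% TWEEN 20.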

[7] = tested on: ABUTH (Abutilon theophrasti); experiment: Preemergence herbicidal evaluation; assay type: in vivo, Medic.; conditions: rated 4-5 weeks after treatment
GALAP (Galium aparine) [8] = experiment: Postemergence herbicidal evaluation; assay type: in vivo; conditions: postemergence
Method in brief: as §1

[9] = tested on: AMBEL (Ambrosia artemisifolia); experiment: Preemergence herbicidal evaluation; assay type: in vivo, L.; conditions: rated 4-5 weeks after treatment
Method in brief: as §2

[10] = tested on: CHEAL (Chenopodium album); experiment: Preemergence herbicidal evaluation; assay type: in vivo, L.; conditions: rated 4-5 weeks after treatment
Method in brief: as §2

[11] = tested on: CASOB (Cassia obtusifolia); experiment: Preemergence herbicidal evaluation; assay type: in vivo, L.; conditions: rated 4-5 weeks after treatment
Method in brief: as §2

GALAP (Galium aparine) [12] = experiment: Preemergence herbicidal evaluation; assay type: in vivo; conditions: rated 4-5 weeks after treatment
Method in brief: as §2

[13] = tested on: IPOHE (Ipomoea hederacea); experiment: Postemergence herbicidal evaluation; assay type: in vivo, (L.) Jacq.; conditions: postemergence
Method in brief: as §1

[14] = tested on: GLXMAW (Soybean, Williams); experiment: Postemergence herbicidal evaluation; assay type: in vivo, Glycine max, (L.) Merr. cv Williams; conditions: postemergence
Method in brief: as §1

Cc1cnn(-c2nsc3ccc(-n4c(=O)cc(C(F)(F)F)n(C)c4=O)cc23)c1 [Compound 59, 1-methyl-3-[3-(4-methylpyrazol-1-yl)-1,2-benzisothiazol-5-yl]-6-(trifluoromethyl)uracil]
ABUTH herbicidal rating ([1]; rate 0.0320 kg/ha): 9.0
ABUTH herbicidal rating ([1]; rate 0.0620 kg/ha): 9.0
ABUTH herbicidal rating ([1]; rate 0.1250 kg/ha): 9.0
Preemergence herbicidal rating ZEAMX (ZEAMX (Corn, Field); Rate 0.0620 kg/ha): 1.0
Preemergence herbicidal rating ZEAMX (ZEAMX (Corn, Field); Rate 0.1250 kg/ha): 5.0
Preemergence herbicidal rating ZEAMX (ZEAMX (Corn, Field); Rate 0.2500 kg/ha): 5.0
herbicidal rating, ORYSAT (rice tolerance) (ORYSAT (Rice, Tebonnet); rate 0.0080 kg/ha): 0.0
herbicidal rating, ORYSAT (rice tolerance) (ORYSAT (Rice, Tebonnet); rate 0.0320 kg/ha): 0.0
herbicidal rating, ORYSAT (rice tolerance) (ORYSAT (Rice, Tebonnet); rate 0.1250 kg/ha): 0.0
herbicidal rating, MOOVA ([2]; rate 0.0080 kg/ha): 0.0
herbicidal rating, MOOVA ([2]; rate 0.0320 kg/ha): 3.0
herbicidal rating, MOOVA ([2]; rate 0.1250 kg/ha): 9.0
Preemergence herbicidal rating ECHCG ([3]; Rate 0.0620 kg/ha): 2.0
Preemergence herbicidal rating ECHCG ([3]; Rate 0.1250 kg/ha): 3.0
Preemergence herbicidal rating ECHCG ([3]; Rate 0.2500 kg/ha): 7.0
Preemergence herbicidal rating SETVI (SETVI (Setaria viridis) [4]; Rate 0.0620 kg/ha): 6.0
Preemergence herbicidal rating SETVI (SETVI (Setaria viridis) [4]; Rate 0.1250 kg/ha): 6.0
Preemergence herbicidal rating SETVI (SETVI (Setaria viridis) [4]; Rate 0.2500 kg/ha): 9.0
TRZAWR herbicidal rating ([5]; rate 0.0320 kg/ha): 3.0
TRZAWR herbicidal rating ([5]; rate 0.0620 kg/ha): 3.5
TRZAWR herbicidal rating ([5]; rate 0.1250 kg/ha): 4.0
SETVI herbicidal rating (SETVI (Setaria viridis) [6]; rate 0.0320 kg/ha): 0.0
SETVI herbicidal rating (SETVI (Setaria viridis) [6]; rate 0.1250 kg/ha): 3.0
Preemergence herbicidal rating ABUTH ([7]; Rate 0.0620 kg/ha): 0.0
Preemergence herbicidal rating ABUTH ([7]; Rate 0.1250 kg/ha): 9.0
Preemergence herbicidal rating ABUTH ([7]; Rate 0.2500 kg/ha): 7.0
GALAP herbicidal rating (GALAP (Galium aparine) [8]; rate 0.0320 kg/ha): 0.0
GALAP herbicidal rating (GALAP (Galium aparine) [8]; rate 0.0620 kg/ha): 3.0
GALAP herbicidal rating (GALAP (Galium aparine) [8]; rate 0.1250 kg/ha): 3.0
Preemergence herbicidal rating AMBEL ([9]; Rate 0.0620 kg/ha): 0.0
Preemergence herbicidal rating AMBEL ([9]; Rate 0.1250 kg/ha): 5.0
Preemergence herbicidal rating AMBEL ([9]; Rate 0.2500 kg/ha): 6.0
Preemergence herbicidal rating CHEAL ([10]; Rate 0.0620 kg/ha): 9.0
Preemergence herbicidal rating CHEAL ([10]; Rate 0.1250 kg/ha): 9.0
Preemergence herbicidal rating CHEAL ([10]; Rate 0.2500 kg/ha): 9.0
Preemergence herbicidal rating CASOB ([11]; Rate 0.0620 kg/ha): 0.0
Preemergence herbicidal rating CASOB ([11]; Rate 0.1250 kg/ha): 0.0
Preemergence herbicidal rating CASOB ([11]; Rate 0.2500 kg/ha): 0.0
Preemergence herbicidal rating GALAP (GALAP (Galium aparine) [12]; Rate 0.0620 kg/ha): 5.0
Preemergence herbicidal rating GALAP (GALAP (Galium aparine) [12]; Rate 0.1250 kg/ha): 5.0
Preemergence herbicidal rating GALAP (GALAP (Galium aparine) [12]; Rate 0.2500 kg/ha): 4.0
IPOHE herbicidal rating ([13]; rate 0.0320 kg/ha): 8.0
IPOHE herbicidal rating ([13]; rate 0.0620 kg/ha): 8.0
IPOHE herbicidal rating ([13]; rate 0.1250 kg/ha): 9.0
GLXMAW herbicidal rating ([14]; rate 0.0320 kg/ha): 7.5
GLXMAW herbicidal rating ([14]; rate 0.0620 kg/ha): 7.5
GLXMAW herbicidal rating ([14]; rate 0.1250 kg/ha): 8.0

Cn1c(C(F)(F)F)cc(=O)n(-c2ccc3snc(-c4ccco4)c3c2)c1=O [Compound 60, 3-[3-(2-furyl)-1,2-benzisothiazol-5-yl]-1-methyl-6-(trifluoromethyl)uracil]
ABUTH herbicidal rating ([1]; rate 0.0320 kg/ha): 9.0
ABUTH herbicidal rating ([1]; rate 0.0620 kg/ha): 9.0
Preemergence herbicidal rating ZEAMX (ZEAMX (Corn, Field); Rate 0.0620 kg/ha): 3.0
Preemergence herbicidal rating ZEAMX (ZEAMX (Corn, Field); Rate 0.1250 kg/ha): 5.0
Preemergence herbicidal rating ZEAMX (ZEAMX (Corn, Field); Rate 0.2500 kg/ha): 6.0
herbicidal rating, ORYSAT (rice tolerance) (ORYSAT (Rice, Tebonnet); rate 0.0080 kg/ha): 0.0
herbicidal rating, ORYSAT (rice tolerance) (ORYSAT (Rice, Tebonnet); rate 0.0320 kg/ha): 1.5
herbicidal rating, ORYSAT (rice tolerance) (ORYSAT (Rice, Tebonnet); rate 0.1250 kg/ha): 2.5
herbicidal rating, MOOVA ([2]; rate 0.0080 kg/ha): 0.0
herbicidal rating, MOOVA ([2]; rate 0.0320 kg/ha): 9.0
herbicidal rating, MOOVA ([2]; rate 0.1250 kg/ha): 9.0
Preemergence herbicidal rating ECHCG ([3]; Rate 0.0620 kg/ha): 1.0
Preemergence herbicidal rating ECHCG ([3]; Rate 0.1250 kg/ha): 6.0
Preemergence herbicidal rating ECHCG ([3]; Rate 0.2500 kg/ha): 7.0
Preemergence herbicidal rating SETVI (SETVI (Setaria viridis) [4]; Rate 0.0620 kg/ha): 3.0
Preemergence herbicidal rating SETVI (SETVI (Setaria viridis) [4]; Rate 0.1250 kg/ha): 7.0
Preemergence herbicidal rating SETVI (SETVI (Setaria viridis) [4]; Rate 0.2500 kg/ha): 9.0
TRZAWR herbicidal rating ([5]; rate 0.0320 kg/ha): 4.0
TRZAWR herbicidal rating ([5]; rate 0.0620 kg/ha): 4.5
SETVI herbicidal rating (SETVI (Setaria viridis) [6]; rate 0.0320 kg/ha): 3.0
SETVI herbicidal rating (SETVI (Setaria viridis) [6]; rate 0.0620 kg/ha): 2.0
Preemergence herbicidal rating ABUTH ([7]; Rate 0.0620 kg/ha): 5.0
Preemergence herbicidal rating ABUTH ([7]; Rate 0.1250 kg/ha): 5.0
Preemergence herbicidal rating ABUTH ([7]; Rate 0.2500 kg/ha): 9.0
GALAP herbicidal rating (GALAP (Galium aparine) [8]; rate 0.0320 kg/ha): 7.0
GALAP herbicidal rating (GALAP (Galium aparine) [8]; rate 0.0620 kg/ha): 9.0
Preemergence herbicidal rating AMBEL ([9]; Rate 0.0620 kg/ha): 0.0
Preemergence herbicidal rating AMBEL ([9]; Rate 0.1250 kg/ha): 5.0
Preemergence herbicidal rating AMBEL ([9]; Rate 0.2500 kg/ha): 9.0
Preemergence herbicidal rating CHEAL ([10]; Rate 0.0620 kg/ha): 7.0
Preemergence herbicidal rating CHEAL ([10]; Rate 0.1250 kg/ha): 9.0
Preemergence herbicidal rating CHEAL ([10]; Rate 0.2500 kg/ha): 9.0
Preemergence herbicidal rating CASOB ([11]; Rate 0.0620 kg/ha): 0.0
Preemergence herbicidal rating CASOB ([11]; Rate 0.1250 kg/ha): 0.0
Preemergence herbicidal rating CASOB ([11]; Rate 0.2500 kg/ha): 0.0
Preemergence herbicidal rating GALAP (GALAP (Galium aparine) [12]; Rate 0.0620 kg/ha): 6.0
Preemergence herbicidal rating GALAP (GALAP (Galium aparine) [12]; Rate 0.1250 kg/ha): 7.0
Preemergence herbicidal rating GALAP (GALAP (Galium aparine) [12]; Rate 0.2500 kg/ha): 9.0
IPOHE herbicidal rating ([13]; rate 0.0320 kg/ha): 9.0
IPOHE herbicidal rating ([13]; rate 0.0620 kg/ha): 9.0
GLXMAW herbicidal rating ([14]; rate 0.0320 kg/ha): 5.0
GLXMAW herbicidal rating ([14]; rate 0.0620 kg/ha): 7.0
